79 molecules from PMC12040169 (PLOS Biology, 2025) can be followed below.

The structures appear in SMILES notation.

The nature of one data set: in vitro. Particulars: human, hela cells, % viability.
For the molecule `CN1C(=O)c2cccc3c(S(=O)(=O)N4CCN(S(=O)(=O)c5ccc6c7c(cccc57)C(=O)N6C)CC4)ccc1c23` [CBK269140], the viability at 28.5 h, 10 µM is 98.2%.

Turning to `Cc1cc2nc(/C(C#N)=C\c3cn(CC(=O)Nc4ccc(F)cc4)c4ccccc34)[nH]c2cc1C` [CBK269142], the viability at 28.5 h, 10 µM is 113%.

On to `Cn1c(CSCc2ccccc2F)nnc1SCC(=O)c1ccc(Br)cc1` [CBK269143], for which the viability at 28.5 h, 10 µM amounted to 92.3%.

With `O=C(COc1ccc(S(=O)(=O)N2CCCCC2)cc1)N1CCN(Cc2ccccc2)CC1` [CBK269144], the viability at 28.5 h, 10 µM was 87.1%.

For the molecule `O=C(COc1ccccc1)n1nc(-c2ccco2)nc1NCc1cccs1` [CBK269145], the viability at 28.5 h, 10 µM is 85.7%.

For `O=C(c1cccs1)n1nc(NCc2ccccc2)nc1NCc1ccccc1` [CBK269149], the viability at 28.5 h, 10 µM is 107%.

Turning to `O=S(=O)(N1CCCCCC1)N1CCN(S(=O)(=O)N2CCOCC2)CC1` [CBK269152], the viability at 28.5 h, 10 µM came out at 100%.

With `Cc1cc(C)c(C)c(S(=O)(=O)NCCOCCO)c1C` [CBK269153], the viability at 28.5 h, 10 µM was found to be 88.6%.

As to `COc1ccc(CCN2C(=O)c3[nH]nc(-c4cc(C)c(C)cc4O)c3C2c2ccccc2)cc1` (stereo not shown) [CBK269154], the viability at 28.5 h, 10 µM came out at 106%.

As for `O=C(CSCc1c(F)cccc1Cl)NCc1ccccc1Cl` [CBK269155], the viability at 28.5 h, 10 µM turned out to be 91.6%.

Consider `O=C(Nc1ccc(Cc2ccncc2)cc1)c1cc([N+](=O)[O-])n[nH]1` [CBK269157], for which the viability at 28.5 h, 10 µM came to 99.4%.

`COc1cc(CNC2CCCCC2)cc(I)c1OCC(N)=O` [CBK269158C]: the viability at 28.5 h, 10 µM is 117%.

For `CCS(=O)(=O)Nc1ccc(C2=NN(S(=O)(=O)c3ccc(F)cc3)C(c3ccccc3C)C2)cc1` (stereo not shown) [CBK269161], the viability at 28.5 h, 10 µM stood at 103%.

For `COc1ccccc1N1CCN(CC(=O)NC2CC3CCC2C3)CC1` (stereo not shown) [CBK269162], the viability at 28.5 h, 10 µM was determined as 94.8%.

Take `Cc1nc2sc3c(c2c2nc(CCC(=O)O)nn12)CC(C)(C)OC3` [CBK269168]: the viability at 28.5 h, 10 µM was found to be 81.4%.

As for `Cc1cc(C)c2c(CC(=O)NNC(=O)COc3ccccc3)coc2c1` [CBK269169], the viability at 28.5 h, 10 µM turned out to be 94.1%.

For `O=S(=O)(Cc1ccccc1Cl)NCCN1CCOCC1` [CBK269171], the viability at 28.5 h, 10 µM amounted to 102%.

Take `Cc1ccccc1C(=O)NCCCNC(=O)c1ccccn1` [CBK269172]: the viability at 28.5 h, 10 µM amounted to 96.7%.

For the molecule `CC(=O)N1CCc2c(sc3nc(N)c(C(=O)NCCc4ccc(F)cc4)c(C(F)(F)F)c23)C1` [CBK269176], the viability at 28.5 h, 10 µM worked out at 94.4%.

On to `COc1ccc(OCC(=O)Nc2ccccc2N2CCN(S(C)(=O)=O)CC2)cc1` [CBK269177], for which the viability at 28.5 h, 10 µM turned out to be 89.9%.

As to `Cc1cccc2cc(CN(Cc3ccco3)C(=O)C3CCCCC3)c(O)nc12` [CBK269178], the viability at 28.5 h, 10 µM worked out at 102%.

Take `Cc1ccc(C(=O)O)cc1NC(=O)c1ncn(-c2ccccc2)n1` [CBK269181]: the viability at 28.5 h, 10 µM came out at 114%.

For the molecule `CC(=O)c1ccc(NC(=O)CSc2nnc(-c3ccncc3)s2)cc1` [CBK269183], the viability at 28.5 h, 10 µM is 85.1%.

As for `CC1CCCCN1Cc1nc2c(c(=O)n(C)c(=O)n2C)n1Cc1ccc(Br)cc1` (stereo not shown) [CBK269184], the viability at 28.5 h, 10 µM was determined as 95.3%.

`COc1cc(S(=O)(=O)NCCCn2ccnc2)ccc1Cl` [CBK269186]: the viability at 28.5 h, 10 µM stood at 89.1%.

Consider `Cc1ccc(C(=O)C2=C(O)C(=O)N(CCCN3CCOCC3)C2c2ccccn2)o1` (stereo not shown) [CBK269187], for which the viability at 28.5 h, 10 µM came out at 89.7%.

In the case of `COc1ccc(NC(=O)CN2CCN(c3ccccc3OC)CC2)c([N+](=O)[O-])c1` [CBK269188], the viability at 28.5 h, 10 µM turned out to be 94.7%.

Take `Cn1c(=O)c2c(nc(CN3CCOCC3)n2CC(=O)c2ccccc2)n(C)c1=O` [CBK269195]: the viability at 28.5 h, 10 µM came out at 93.2%.

With `O=C(NCC(O)c1ccccc1)c1ccc(Cl)c(S(=O)(=O)N2CCCCC2)c1` (stereo not shown) [CBK269197], the viability at 28.5 h, 10 µM was 81%.

As to `Cc1ccccc1Cn1c(CN2CCCCC2C)nc2c1c(=O)n(C)c(=O)n2C` (stereo not shown) [CBK269199], the viability at 28.5 h, 10 µM worked out at 91.2%.

On to `CC(SCC(=O)Nc1ccc(F)cc1)c1nc2ccccc2c(=O)[nH]1` (stereo not shown) [CBK269200], for which the viability at 28.5 h, 10 µM was determined as 105%.

Consider `O=C1NC2CCCCC2NC1CC(=O)N1CCN(C(c2ccccc2)c2ccccc2)CC1` (stereo not shown) [CBK269201], for which the viability at 28.5 h, 10 µM amounted to 88.7%.

On to `Cn1c(=O)n(CCN2CCOCC2)c(=O)c2c1nc1n2CCN1c1ccc(Oc2ccccc2)cc1` [CBK269202], for which the viability at 28.5 h, 10 µM is 91.4%.

Take `CCOC(=O)CC(=O)COc1nc2cc3c(nc2o1)CCCC3` [CBK269204]: the viability at 28.5 h, 10 µM was 89.8%.

Regarding `CC(=O)c1ccc(NC(=O)CSc2nnc(-c3ccc4ccccc4n3)s2)cc1` [CBK269205], the viability at 28.5 h, 10 µM was determined as 97.6%.

As to `Cc1ccccc1CSCC(=O)NCCN1CCOCC1` [CBK269207], the viability at 28.5 h, 10 µM turned out to be 103%.

On to `O=C(O)c1ccc(CSc2nnc(Cc3ccccc3)[nH]2)o1` [CBK269208], for which the viability at 28.5 h, 10 µM was determined as 99.3%.

Regarding `N#Cc1cc(SCCC(=O)O)c(N2CCOCC2)cc1C#N` [CBK269212], the viability at 28.5 h, 10 µM is 96.3%.

Regarding `CC(Sc1ccccc1)C(=O)NCCCN1CCOCC1` (stereo not shown) [CBK269214], the viability at 28.5 h, 10 µM is 106%.

In the case of `Cc1ccc(OCCCSc2nnc(N)[nH]2)cc1` [CBK269215A], the viability at 28.5 h, 10 µM turned out to be 89.1%.

For `Nc1c(C(=O)NCC2CCCO2)c2nc3ccccc3nc2n1C1CCCC1` (stereo not shown) [CBK269217], the viability at 28.5 h, 10 µM was determined as 112%.

As for `Cc1ccccc1C(=O)NCCNC(=O)c1cccnc1` [CBK269222], the viability at 28.5 h, 10 µM was 96.2%.

Turning to `COc1ccc(OC)c(S(=O)(=O)N2CCCC(C(=O)O)C2)c1` (stereo not shown) [CBK269225], the viability at 28.5 h, 10 µM came to 95%.

For the molecule `CCOc1ccc(-c2noc(CCC(=O)NC)n2)cc1OC` [CBK269226], the viability at 28.5 h, 10 µM was found to be 86.4%.

Take `O=C(Cc1ccccc1)Nc1ccccc1C(=O)NCc1cccnc1` [CBK269228]: the viability at 28.5 h, 10 µM stood at 96.1%.

For the molecule `CC(Sc1nc(N(C)C)nc(N2CCOCC2)n1)C(=O)Nc1ccc(Cl)c(Cl)c1` (stereo not shown) [CBK269229], the viability at 28.5 h, 10 µM worked out at 110%.

Consider `Cc1ccc2nsnc2c1NC(=O)CN1CCN(c2ccc(F)cc2)CC1` [CBK269231], for which the viability at 28.5 h, 10 µM is 98.9%.

In the case of `Cn1c(=O)[nH]c(=O)c2c1nc(SCCN1CCOCC1)n2CCCc1ccccc1` [CBK269234], the viability at 28.5 h, 10 µM came to 95.5%.

For the molecule `Cc1ccc2[nH]cc(CCNC(=O)c3cccc(NC(=O)c4ccccc4)c3)c2c1` [CBK269235], the viability at 28.5 h, 10 µM came to 86.6%.

`CCN1CCN(Cc2nc3c(c(=O)n(C)c(=O)n3C)n2Cc2c(F)cccc2Cl)CC1` [CBK269236]: the viability at 28.5 h, 10 µM is 108%.

In the case of `O=S(=O)(N1CCCCCC1)n1ccnc1` [CBK269241], the viability at 28.5 h, 10 µM was determined as 92.1%.

`CCOc1ccc(CN2CCNC(=O)C2CC(=O)O)cc1` (stereo not shown) [CBK269242]: the viability at 28.5 h, 10 µM stood at 107%.

For the molecule `CCNc1nc2c(c(=O)[nH]c(=O)n2C)n1CCCc1ccccc1` [CBK269243], the viability at 28.5 h, 10 µM stood at 94.6%.

With `O=C(CCNS(=O)(=O)c1ccc(Cl)cc1)Nc1ccncc1` [CBK269244], the viability at 28.5 h, 10 µM stood at 99.4%.

Regarding `O=C(O)c1ccc2c(c1)C(=O)N(CCCN1CCOCC1)C2=O` [CBK269245], the viability at 28.5 h, 10 µM was 102%.

Take `O=C(CN1C(=O)c2ccccc2C1=O)Nc1ccccc1C(=O)N1CCN(c2ccccc2)CC1` [CBK269251]: the viability at 28.5 h, 10 µM stood at 118%.

Regarding `Cc1c(Cl)cccc1N1CCN(S(=O)(=O)CC23CCC(CC2=O)C3(C)C)CC1` (stereo not shown) [CBK269257], the viability at 28.5 h, 10 µM was determined as 96.1%.

As for `NC1=C(c2ccccc2)C(=O)CN1NC(=O)COc1ccccc1-c1ccccc1` [CBK269258], the viability at 28.5 h, 10 µM amounted to 95.1%.

Regarding `Cc1sc2nc(N)c(C(=O)NC(C)C)cc2c1C` [CBK269259], the viability at 28.5 h, 10 µM was determined as 115%.

As to `O=C(O)c1cccc(-n2c(S)nnc2-c2ccncc2)c1` [CBK269260], the viability at 28.5 h, 10 µM stood at 105%.

Take `CCN(CC)CCNC(=O)c1cc(O)nc2ccccc12` [CBK269261]: the viability at 28.5 h, 10 µM was 99.6%.

As for `O=C(O)COc1c(-c2ccco2)oc2ccccc2c1=O` [CBK269262], the viability at 28.5 h, 10 µM turned out to be 96.9%.

For the molecule `CCN1CCN(C(=O)CN(Cc2ccc(Cl)cc2)S(C)(=O)=O)CC1` [CBK269263], the viability at 28.5 h, 10 µM amounted to 82.8%.

In the case of `O=C(O)CSc1nc2c(-c3ccco3)c3c(nc2o1)CCCC3` [CBK269266], the viability at 28.5 h, 10 µM came to 104%.

Consider `Cc1ccc(NS(=O)(=O)c2cc(C(=O)N3CCN(C)CC3)ccc2C)cc1C` [CBK269268], for which the viability at 28.5 h, 10 µM was 91.2%.

`C/C=C/c1ccc(OCCCn2nnc3ccccc32)c(OC)c1` [CBK269271]: the viability at 28.5 h, 10 µM came out at 86%.

For the molecule `Cc1nonc1NC(=O)CSc1nc2ccccc2[nH]1` [CBK269273], the viability at 28.5 h, 10 µM worked out at 101%.

In the case of `COc1ccc(S(=O)(=O)NC(C)C(=O)NCc2ccccn2)cc1Cl` (stereo not shown) [CBK269275], the viability at 28.5 h, 10 µM was 101%.

Consider `Cn1c(=O)c2c(nc(CN3CCN(C(=O)c4ccco4)CC3)n2CCc2ccccc2)n(C)c1=O` [CBK269278], for which the viability at 28.5 h, 10 µM was 80.6%.

With `O=S(=O)(NN1CCOCC1)c1cc(Cl)cc(Cl)c1O` [CBK269279], the viability at 28.5 h, 10 µM stood at 89.8%.

As for `O=C(NCc1ccccc1)c1ccccc1NC(=O)C1CCCCC1C(=O)O` (stereo not shown) [CBK269283], the viability at 28.5 h, 10 µM turned out to be 92%.

For the molecule `Cc1cc(Br)ccc1NC(=O)C(=O)NC1CC1` [CBK269284], the viability at 28.5 h, 10 µM was 83.6%.

As for `O=C(O)c1cc(-n2c(S)nnc2-c2cnccn2)ccc1Cl` [CBK269285], the viability at 28.5 h, 10 µM is 86.2%.

As for `CN(C)CCN1C(=O)C2C3c4ccccc4C([N+](=O)[O-])(c4ccccc43)C2C1=O` (stereo not shown) [CBK269286], the viability at 28.5 h, 10 µM came out at 81.4%.

In the case of `Cc1cccc(OCC(=O)Nc2ccc(-c3nc4ncccc4o3)cc2C)c1` [CBK269287], the viability at 28.5 h, 10 µM is 87.3%.

Regarding `Cc1nnc(SCCn2c(N3CCCCC3)nc3c2c(=O)n(C)c(=O)n3C)s1` [CBK269288], the viability at 28.5 h, 10 µM amounted to 103%.

Consider `COc1ccc(OC(=O)COc2nc3c(C)cc(C)nc3[nH]2)cc1` [CBK269290], for which the viability at 28.5 h, 10 µM is 106%.

Take `CC1CCN(Cc2nc3c(c(=O)n(C)c(=O)n3C)n2CCN2CCOCC2)CC1` [CBK269291]: the viability at 28.5 h, 10 µM came to 108%.

The same data set, now with this note: human, hela cells, % viability, bulk resorufin, single well.
Turning to `O=C(O)CCCNC(=O)C(O)(c1ccccc1)c1ccccc1` [CBK269156], the viability at 28.5 h, 10 µM was 95.5%.
